Drawing on patent publication US20260373119A1, “NOVEL COMPOUND, AND COMPOSITION FOR PREVENTING OR TREATING HER2-POSITIVE CANCER, COMPRISING SAME” (EWHA UNIVERSITY - INDUSTRY COLLABORATION FOUNDATION, priority 2022, published 2026), this text covers IC50 and inhibition for one compound.

The target in assay [1] is T1, ELF3-MED23 protein-protein interaction (Homo sapiens, UniProt Q9ULK4).
T1 construct: followed by the addition of either the candidate compound or MED23 protein constructs; endogenous in cells; host or cells: 293T kidney cells (MED23 endogenous; GAL4-ELF3 transfected)
T1 sequence (Q9ULK4 1-1368): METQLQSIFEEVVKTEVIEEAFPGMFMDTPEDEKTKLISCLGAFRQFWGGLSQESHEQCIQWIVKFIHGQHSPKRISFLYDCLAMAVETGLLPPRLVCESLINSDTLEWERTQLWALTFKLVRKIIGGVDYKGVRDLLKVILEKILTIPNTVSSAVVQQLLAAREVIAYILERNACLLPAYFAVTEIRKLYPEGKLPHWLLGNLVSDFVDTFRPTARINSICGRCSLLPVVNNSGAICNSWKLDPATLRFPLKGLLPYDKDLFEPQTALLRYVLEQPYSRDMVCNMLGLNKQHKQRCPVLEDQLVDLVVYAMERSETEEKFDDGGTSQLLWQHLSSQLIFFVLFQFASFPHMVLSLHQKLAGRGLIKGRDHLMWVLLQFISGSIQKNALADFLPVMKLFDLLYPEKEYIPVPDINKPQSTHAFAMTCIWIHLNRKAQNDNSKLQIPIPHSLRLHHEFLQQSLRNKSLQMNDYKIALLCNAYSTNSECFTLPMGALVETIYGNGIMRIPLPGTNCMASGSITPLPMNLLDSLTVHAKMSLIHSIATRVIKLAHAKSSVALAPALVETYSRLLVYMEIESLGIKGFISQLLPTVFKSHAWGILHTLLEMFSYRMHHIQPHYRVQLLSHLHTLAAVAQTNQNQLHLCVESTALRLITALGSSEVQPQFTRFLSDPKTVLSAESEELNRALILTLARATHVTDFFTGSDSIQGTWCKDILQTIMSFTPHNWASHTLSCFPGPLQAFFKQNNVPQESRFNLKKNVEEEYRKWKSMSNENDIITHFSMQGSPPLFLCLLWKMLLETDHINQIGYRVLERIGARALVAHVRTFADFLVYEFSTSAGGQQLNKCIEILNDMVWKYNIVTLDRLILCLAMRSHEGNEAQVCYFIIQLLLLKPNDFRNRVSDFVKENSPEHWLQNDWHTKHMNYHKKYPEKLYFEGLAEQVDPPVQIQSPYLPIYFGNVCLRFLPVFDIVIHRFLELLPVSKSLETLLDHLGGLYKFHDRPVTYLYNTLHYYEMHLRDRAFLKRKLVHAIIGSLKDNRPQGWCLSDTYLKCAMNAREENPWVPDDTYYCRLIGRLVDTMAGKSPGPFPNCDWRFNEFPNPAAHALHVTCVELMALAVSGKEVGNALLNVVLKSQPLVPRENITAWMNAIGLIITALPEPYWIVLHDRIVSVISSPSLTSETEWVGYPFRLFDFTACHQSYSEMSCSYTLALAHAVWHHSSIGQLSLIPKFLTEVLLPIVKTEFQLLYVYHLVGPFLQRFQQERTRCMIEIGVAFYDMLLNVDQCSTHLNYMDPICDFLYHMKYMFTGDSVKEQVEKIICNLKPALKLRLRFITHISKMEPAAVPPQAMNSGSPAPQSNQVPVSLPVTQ
As to the kind of experiment: SEAP reporter assay, ELF3-MED23 PPI inhibition (293T kidney cells). It counts as cell-based.

Assay [2] deals with HeLa (HER2-negative cervical cancer cell line). In words: antiproliferative effect, HeLa. Type of assay: cell-based. The settings on record: Homo sapiens, 72 hours.

Regarding `CC(=O)N1N=C(c2cccc(O)c2)CC1c1ccc(Cl)cc1` (stereo not drawn) [Compound 15, 1-[5-(4-Chlorophenyl)-3-(3-hydroxyphenyl)-4,5-dihydropyrazol-1-yl]-ethanone], the IC50 is 1.18 ± 0.34 µM in assay [1] (ELF3-MED23 PPI) and 16.92 ± 0.1 µM in assay [2]. The compound further registered an inhibition at 10 µM in assay [1] (HEK-293T, 10 μM) of 95%.
